Patent US20260191999A1, “COMPOUNDS AND THEIR USE” (KING'S COLLEGE LONDON, priority 2022, published 2026)

Key:
[1] = test system: SKOV3-TRip2 and SKOV3-ip1 subcutaneous tumours; assay: In vivo tumour model and PET imaging; design: species or system Balb/c nu/nu mice
Protocol: All animal experiments were performed in accordance with the United Kingdom Home Office Animal (scientific procedures) Act […]. […] SKOV3-ip1 and 4×10^6 and SKOV3-TRip2 cells were injected subcutaneously into female Balb/c nu/nu mice aged 6-9 weeks (Charles River Laboratories). Tumour dimensions were measured using an electronic calliper and the volume calculated using the following equation: volume=((π/6)×h×w×l), where h, w and l represent, height, width, and length, respectively. Imaging studies took place when tumour size reached approximately 150-250 mm^3. Mice were anaesthetized with isoflurane (2.5% in oxygen) and maintained at 37° C. using an air-heated scanning bed. A tail vein cannula was inserted and a 3.7 MBq bolus of PQM-H-001 was administered in approximately 100 μL of PBS. Immediately following injection, 120 min PET acquisition was performed on a Mediso nanoScan PET/CT system. […] Reconstructed images (Tera-Tomo 3D reconstruction algorithm; 4 iterations; 6 subsets; 400-600 keV; 0.4 mm voxel size) were analysed using VivoQuant software (v. 2.5, Invicro Ltd.). Regions of interest (ROIs) were drawn manually on the CT images and the radioactivity concentration in each ROI expressed as a percentage of the injected dose per mL of tissue volume (% ID/mL).

[2] = test system: SKOV3-TRip2 and SKOV3-ip1 cells; assay: Cell uptake of radiotracer, drug-resistant vs drug-sensitive SKOV3 cells; assay type: cell-based, human
Protocol: For cell uptake studies SKOV3-ip1 and SKOV3-TRip2, A549-WT, A549-KO-ALDH1A1, HEK293-WT and HEK293-ALDH1A1 cells were plated in 6 well plates 24 h prior to the studies, as described above (Western Blotting). One mL of fresh media containing 0.37 MBq of PQM-H-001 and 6 KBq PQM-H-002 was added to each well for the desired incubation time. At 40 min, plates were placed on ice, washed three times with ice-cold PBS to remove exogenous radioactivity and lysed in RIPA buffer ([…]; Fisher Scientific Ltd).
For all cell uptake and efflux study decay-corrected radioactivity in lysates was determined on a gamma counter ([…]; Wallac 1282 CompuGamma counter), with the remaining cell lysate centrifuged (21,000×g for 10 min at 4° C.) and the supernatant used to determine protein concentration following radioactive decay using a Pierce BCA assay. To quantify radiotracer uptake in cells, three standard solutions of the radioactivity-containing medium were counted on the gamma counter. Data were expressed as a percentage of total radioactivity administered to cells per mg of protein.
Next, the time-dependent uptake of the of the radiotracers PQM-H-001 ([^18F]PQM-H-001) and PQM-H-002 ([^125I]PQM-H-002) was profiled in drug-resistant SKOV3-Trip2 and drug-sensitive SKOV3-ip1 cell lines (Pereira, R., et al. 2019).

Ex vivo biodistribution = assay type: in vivo, BALB/c-nu/nu mice; settings: 90 min post radiotracer injection
Protocol: PQM-H-001 distribution was further evaluated ex vivo 90 min post radiotracer injection. […] Ex-vivo distribution of PQM-H-001 was performed after PET imaging (section: In Vivo Tumour Model and PET Imaging) by sacrificing all mice at time point 120 min post injection. Blood, tumour, and major organs and tissues were collected, wet-weighed, and counted using an automated y-counter (Wallac 1282 CompuGamma g counter). The concentrations of radioactivity in blood, tumor, and organs and tissues were determined as percentage injected of total radioactivity per gram (% ID/g).

SKOV3-ip1 cells = assay: Cisplatin-induced growth inhibition, MTT assay, SKOV3-ip1; assay type: cell-based, human; settings: MTT assay 72 h post treatment; second value of 'respectively' pair (SKOV3-ip1 as printed)
Protocol: FIG. 1a: Graph showing cisplatin-induced growth inhibition in SKOV3-ip1 cells (white circles) and SKOV3-TRip2 cells (filled squares) using an MTT assay 72 h post treatment (n=3-5).
The SKOV3-TRip2 cell line was generated through progressive exposure to paclitaxel (Duan et al., 1999) whereas the SKOV3-ip1 cell line remained untreated.

SMILES | Retention in treatment resistant SKOV3-TRip2 tumours compared to SKOV3-ip1 tumours ([1]; PET, subcutaneous tumours, 3.7 MBq i.v. bolus) [×] | identification of drug resistant tumours in vivo (in words) ([1]; PET/CT imaging) | Radiotracer retention, drug resistant versus drug-sensitive cells [2] [times higher] | radiotracer retention in drug-resistant vs drug-sensitive tumours (in words) (Ex vivo biodistribution) | radiotracer retention in healthy tissues (in words) (Ex vivo biodistribution) | route of excretion (in words) (Ex vivo biodistribution) | EC50 (SKOV3-ip1 cells) [nM]
CS(=O)(=O)N1CCN(C(=O)c2cnc3ccc([18F])cc3c2-c2ccc(C3(C#N)CC3)cc2)CC1 [PQM-H-001, 1-(4-(6-(fluoro-^18F)-3-(4-(methylsulfonyl)piperazine-1-carbonyl)quinolin-4-yl)phenyl)cyclopropane-1-carbonitrile] | > 5 | can non-invasively identify drug resistant tumours in vivo | 9 | substantially increased in the drug-resistant tumours compared to drug-sensitive tumours | Low radiotracer retention was observed in most healthy tissues, except the liver | excretion occurring via the urinary and hepatobiliary tract | –
N.N.[Cl][Pt][Cl] [cisplatin] | – | – | – | – | – | – | 2600
